Results taken from patent publication US5171851A, “Imidazole substituted benzoxazine or benzothiazine derivatives” (Dong-A Pharm. Co., Ltd., priority 1990, dated 1992).
Where two headings read alike, the source gives them in different places.

Legend:
[1] = test system: blood perfused papillary muscle preparation; test: contractile power on blood perfused papillary muscle preparation; design: species or system dog; details: for activation at 0.001 mg / activation at 0.003 mg / activation at 0.01 mg / activation at 0.03 mg: Canis lupus familiaris, read-out: change of contractivity (%); for activation at 0.001 mg: dose 1.0 ug; for activation at 0.003 mg: dose 3.0 ug; for activation at 0.01 mg: dose 10.0 ug; for activation at 0.03 mg: dose 30.0 ug; for ED 30 (developed tension of papillary muscle): least-square method
Description: Determination of contractile power on blood perfused papillary muscle preparation:
Dogs of either sex weighing 7-12 kg were anesthetized with sodium pentobarbital (30 mg/kg, i.v.). Heparin of 1000 unit/kg was administered to each animal intravenously. The animals were exsanguinated and heart was removed. The preparation was perfused through the cannulated anterior septal artery (ASA) with arterial blood from a donor dog at constant pressure of about […]. Donor dogs were anesthetized with sodium pentobarbital (30 mg/kg, i.v.). Heparin of 1000 units/kg was administered intravenously. The papillary muscle was stimulated with rectangular pulses of 5- ms duration and about 1.5 times the threshold voltage at a rate of 120 stimuli/min through bipolar electrodes. Resting tension was made to 2 g. The developed tension of papillary muscle was determined by Isometric tresducer. Detailed method was reporated by Matsumoto in Am J. Physiol. 218, 1459-1463 (1970). Test compound at the doses of 10-30 ul was injected in flowing blood in the gum tube connected to catheter. The inotropic effect of the test compounds was shown by change percent of developed tension compared with that prior to the administration of the test compounds.

[2] = test system: blood-perfused sino-atrial preparation; test: sinus rate on blood-perfused sino-atrial preparation; design: species or system dog; details: for activation at 0.001 mg / activation at 0.003 mg / activation at 0.01 mg / activation at 0.03 mg: Canis lupus familiaris, read-out: change of sinus rate (%); for activation at 0.003 mg: dose 3.0 ug; for activation at 0.01 mg: dose 10.0 ug; for activation at 0.03 mg: dose 30.0 ug
Description: Determination of sinus rate on blood-perfused sino-atrial preparation: Mongrel gods of either sex weighing 7-12 kg were anesthetized with sodium pentoba rbital (30 mg/kg i.v.). Heparin ob 1000 unit/kg was administered to each animal intravenously and the animals were exsanguinated. Heart was removed and put in Krebs-Henseleit solution. Catheter was inserted into blood vessel between right coronary artery and SA nodes. Right atrium and catheter were together removed. Blood supplied from carotid artery of donor dog of either sex weighing 15-25 kg, was supplied to blood vessel cather from right coronary artery and SA node under constant blood pressure of 100 mmHG by use of Peristaltic pump. The resting tension of right atrial muscle was made to 2g. The sinus rate triggered by spontaneous contraction of atrial muscle was determined on Narco physiograph Narcotrace 4). Detailed method was reported by S. Chiba, et al. in Japanese Pharmacology 25, 433-439(1975). Doses of test compounds were injected into flowing blood in gum tube connected to the near part of the catheter inserted into right coronary artery. The effects on sinus rate were shown as percent compared with the sinus ratio prior to the injection of the test compounds.

[3] = test system: anesthetized cats; test: cardiotonic effect on anesthetized cats; assay type: in vivo, cat; details: Felis catus; for change in vivo at 0.01 mg/kg: 0.01 mg/Kg iv; for change in vivo at 0.03 mg/kg: 0.03 mg/Kg iv; for change in vivo at 0.1 mg/kg: 0.1 mg/Kg iv
Description: Determination of cardiotonic effect on anesthetized cats: Male cats weighing about 3 kg were anesthetized with sodium pentobarbital (30 mg/kg, i.p.). The same anesthetic was infused intravenously at the does of 4 mg/kg/hr in order to maintain the anesthetic state and mechanically ventilated through a cuffed endotracheal tube, chest was opened by a midline incision and a catheter for measuring left ventricular pressure was inserted through apex into left ventricle and the left ventricular pressure was measured. LVdP/dt was determined by use of diffentiator from the left ventricular pressure. Systemic blood pressure was measured by the left femoral artery by a pressure transducer and heart rate was measured by a cardiotachometer triggered by blood pressure pulses. Test compound was injected into the femoral vein by use of cannule. After completion of the surgical procedures, the cats were allowed to recover about 30 minutes before drug administration. These compounds were dissolved in 0.9% physiological saline and diluted with saline. Solvent such as DMSO or DMF was also used, if necessary. Test compound of 0.1 ml/kg was used. Detailed method was reporated in J. Med. Chem. 30. 1279-87(1987).

Structure (SMILES) | activation at 0.003 mg [1] | activation at 0.01 mg [1] | change in vivo at 0.01 mg/kg ([3]; read-out: HR (%)) | change in vivo at 0.01 mg/kg ([3]; read-out: LV dp/dt (%)) | change in vivo at 0.01 mg/kg ([3]; read-out: LVP (%)) | change in vivo at 0.01 mg/kg ([3]; read-out: SBP (%)) | change in vivo at 0.01 mg/kg ([3]; read-out: dBP) | change in vivo at 0.01 mg/kg ([3]; read-out: mBP (%)) | change in vivo at 0.03 mg/kg ([3]; read-out: HR (%)) | change in vivo at 0.03 mg/kg ([3]; read-out: LV dp/dt (%)) | change in vivo at 0.03 mg/kg ([3]; read-out: LVP (%)) | change in vivo at 0.03 mg/kg ([3]; read-out: SBP (%)) | change in vivo at 0.03 mg/kg ([3]; read-out: dBP) | change in vivo at 0.03 mg/kg ([3]; read-out: mBP (%)) | change in vivo at 0.1 mg/kg ([3]; read-out: HR (%)) | change in vivo at 0.1 mg/kg ([3]; read-out: LV dp/dt (%)) | change in vivo at 0.1 mg/kg ([3]; read-out: LVP (%)) | change in vivo at 0.1 mg/kg ([3]; read-out: SBP (%)) | change in vivo at 0.1 mg/kg ([3]; read-out: dBP) | change in vivo at 0.1 mg/kg ([3]; read-out: mBP (%)) | other results
Cc1cn(-c2ccc3c(c2)COC(=O)N3)c(C)n1 [6-(2,4-dimethylimidazol-1-yl)-(4H)-3,1-benzoxazin-2-one] | 3.7% | 10.3% | – | – | – | – | – | – | – | – | – | – | – | – | – | – | – | – | – | – | activation at 0.001 mg [1]: 0%; activation at 0.03 mg [1]: 15.2%; activation at 0.001 mg ([2]; dose 1.0 ug): 0%; activation at 0.003 mg [2]: 0%; activation at 0.01 mg [2]: 0%; activation at 0.03 mg [2]: 1.67%; change of sinus rate (%) ([2]; at the ED 30 dose): +2.56%
CCc1nc(C)cn1-c1ccc2c(c1)COC(=O)N2 [6-(2-ethyl-4-methylimidazol-1-yl)-(4H)-3,1-benzoxazin-2-one] | 3.45% | 12.5% | – | – | – | – | – | – | – | – | – | – | – | – | – | – | – | – | – | – | activation at 0.001 mg [1]: 0.68%; activation at 0.03 mg [1]: 14.7%; activation at 0.001 mg ([2]; dose 1.0 ug): 0%; activation at 0.003 mg [2]: 0%; activation at 0.01 mg [2]: 0.83%; activation at 0.03 mg [2]: 1.65%; change of sinus rate (%) ([2]; at the ED 30 dose): +6.82%
Cc1cn(-c2cc(C)c3c(c2)CSC(=O)N3)cn1 [8-methyl-6-(4-methylimidazol-1-yl)(4H)-3,1-benzothiazin-2-one] | 26.5% | – | 4.2% | 33.3% | 3.3% | 0% | 0% | 0% | 7.3% | 58.4% | 5.7% | -3.8% | -4% | -4.5% | 12.6% | 75% | 8.8% | -6.5% | -12% | -16.1% | ED 30 (developed tension of papillary muscle) [1]: 5.0 µg; ED 30 (developed tension of papillary muscle) ([1]; listed as 8-methyl-6-(4-methylimidazol-1-)-(4H)-3,1-benzothiazin-2-one): 0.6 µg; activation at 0.003 mg [2]: 3.3%; change of sinus rate (%) ([2]; at the ED 30 dose): +3.5%; change of sinus rate (%) ([2]; at the ED 30 dose, listed as 8-methyl-6-(4-methylimidazol-1-)-(4H)-3,1-benzothiazin-2-one): +7.1%; change of sinus rate (%) ([2]; dose 0.1 ug): +2.5%; change of sinus rate (%) ([2]; dose 0.3 ug): +1.6%; change of sinus rate (%) ([2]; dose 1.0 ug): +2.5%
S=C1Nc2ccc(-n3ccnc3)cc2CS1 [6-(imidazol-1-yl)-(4H)-3,1-benzothiazin-2-thione] | – | – | -1.1% | 8.3% | 2% | 2% | -3.2% | -2% | -0.8% | 16.6% | 4% | 3% | -3.3% | 0% | 0.6% | 25% | 5.7% | 3% | -7.4% | -3.6% | –
O=C1Nc2ccc(-n3ccnc3)cc2CS1 [6-(imidazol-1-yl)-(4H)-3,1-benzothiazin-2-one] | – | 10.7% | 1.6% | 0% | 0% | -2.4% | 0% | -1.2% | 4.7% | 20% | 9.9% | -4.8% | -7.8% | -5.8% | 7% | 39.6% | 18.9% | -19.1% | -19.1% | -19.6% | activation at 0.03 mg [1]: 22.7%
Cc1cn(-c2cc(C)c3c(c2)CSC(=S)N3)cn1 [8-methyl-6-(4-methylimidazol-1-yl)-(4H)-3,1-benzothiazin-2-thione] | – | – | 0% | 6% | 1.2% | -2.3% | -5.1% | -3.3% | 1.6% | 20% | 1.8% | -2.3% | -7.7% | -5.3% | 10.9% | 53.3% | 2% | -3.1% | -11.5% | -7.6% | –
